Assay results: US7833531B2, “Method for treating insulin sensitivity by long-acting GLP-1 receptor mimetibody agonists” (Centocor, Inc., priority 2006, dated 2010)
Where two headings read alike, the source gives them in different places. Where no end group is shown, it is not given here.

Columns and labels:
[1] = tested on: diabetic rats; conditions: cited from earlier work
[2] = tested on: db/db mice; experiment: Blood glucose lowering in db/db mice; assay type: in vivo; conditions: six week old db/db mice fasted two hours, intravenous; 0.5-4 hours post-dosing; MMB dose 100-fold lower than GLP-1 peptide dose
Protocol: GLP-1 MMB Lowers Glucose Level in db/db Mice. […] Blood glucose was monitored 0.5, 1, 2, 3, and 4 hours post-dosing.

[3] = cited from earlier work
[4] = cited from earlier work; remark: listed apart in the source
[5] = biological target: T1, GLP-1R (Rattus norvegicus, UniProt P32301); experiment: cAMP assay in Rinm cells; assay type: cell-based; conditions: similar experiment
T1 construct: endogenous in cells; host or cells: Rinm cells
T1 sequence (P32301 22-463): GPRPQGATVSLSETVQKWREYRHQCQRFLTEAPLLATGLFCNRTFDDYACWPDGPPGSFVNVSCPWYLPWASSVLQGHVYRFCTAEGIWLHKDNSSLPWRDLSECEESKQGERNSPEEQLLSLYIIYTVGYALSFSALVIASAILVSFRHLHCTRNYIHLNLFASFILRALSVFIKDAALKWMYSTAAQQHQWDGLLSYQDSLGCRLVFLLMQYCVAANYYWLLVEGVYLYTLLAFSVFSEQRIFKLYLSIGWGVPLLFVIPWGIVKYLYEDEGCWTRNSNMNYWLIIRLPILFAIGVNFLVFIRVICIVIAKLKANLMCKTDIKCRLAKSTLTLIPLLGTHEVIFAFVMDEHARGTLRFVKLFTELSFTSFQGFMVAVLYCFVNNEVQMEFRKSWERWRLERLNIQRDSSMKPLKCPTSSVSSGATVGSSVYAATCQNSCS
Protocol: cAMP Assay. GLP-1 binds to its receptor, a G-protein coupled receptor, resulting in a dose-dependent increase in the signaling molecule, 3′,5′-cyclic AMP (cAMP). cAMP can be measured with an in vitro assay in cells expressing the GLP-1R (Applied Biosystems). […] The cells were lysed, and the amount of cAMP was determined using a competitive assay that employs an alkaline-phosphatase labeled cAMP conjugate and a chemiluminescent substrate (Tropix® CDPD®).

## CC[C@H](C)[C@H](NC(=O)[C@H](Cc1ccccc1)NC(=O)[C@H](CCC(=O)O)NC(=O)[C@H](CCCCN)NC(=O)[C@H](C)NC(=O)[C@H](C)NC(=O)[C@H](CCC(N)=O)NC(=O)CNC(=O)[C@H](CCC(=O)O)NC(=O)[C@H](CC(C)C)NC(=O)[C@H](Cc1ccc(O)cc1)NC(=O)[C@H](CO)NC(=O)[C@H](CO)NC(=O)[C@@H](NC(=O)[C@H](CC(=O)O)NC(=O)[C@H](CO)NC(=O)[C@@H](NC(=O)[C@H](Cc1ccccc1)NC(=O)[C@@H](NC(=O)CNC(=O)[C@H](CCC(=O)O)NC(=O)[C@H](C)NC(=O)[C@@H](N)Cc1c[nH]cn1)[C@@H](C)O)[C@@H](C)O)C(C)C)C(=O)N[C@@H](C)C(=O)N[C@@H](Cc1c[nH]c2ccccc12)C(=O)N[C@@H](CC(C)C)C(=O)N[C@H](C(=O)N[C@@H](CCCCN)C(=O)NCC(=O)N[C@@H](CCCNC(=N)N)C(N)=O)C(C)C [GLP-1 peptide]
[1]; acute administration
  insulin sensitivity: not acute
[1]; chronic administration
  insulin sensitivity: significant improvement in insulin sensitivity
[2]
  blood glucose: lowered blood glucose at 30 minutes, but by 60 minutes, the blood glucose began to increase again

## Byetta™: recently marketed GLP-1 analogue developed by Amylin and Eli Lilly, first identified in the saliva of the gila monster lizard
[3]; during the course of the study
  sustained decrease in body weight: 5-10 pounds
[3]; following 82 weeks of treatment
  HbAlc levels lowered: approximately 1%
[4]
  in vivo half life: less than 30 minutes

## GLP-1 (A2G) MMB in IgG4 scaffold: mimetibody with DPP-IV resistant GLP-1 variant GLP-1 (A2G) in IgG4 scaffold (HGEGTFTSDVSSYLEGQAAKEFIAWLVKGRG; also: in IgG4 mimetibody scaffold)
[5]
  cAMP levels in Rinm cells relative to wt GLP-1 MMB in IgG4 scaffold: significantly higher level than wt GLP-1 MMB in IgG4 scaffold

## GLP-1 (A2S) MMB in IgG4 scaffold: mimetibody with DPP-IV resistant GLP-1 variant GLP-1 (A2S) in IgG4 scaffold (HSEGTFTSDVSSYLEGQAAKEFIAWLVKGRG; also: in IgG4 mimetibody scaffold)
[5]
  cAMP levels in Rinm cells relative to wt GLP-1 MMB in IgG4 scaffold: significantly higher level than wt GLP-1 MMB in IgG4 scaffold
